Measurements as given in ChEMBL document CHEMBL1122801, “Nontricyclic antidepressant agents derived from cis- and trans-1-amino-4-aryltetralins” (J Med Chem, 1984).
Counter-ions that a name gives are not always drawn.

Key:
[1] = biological target: Norepinephrine transporter (Rattus norvegicus, UniProt Q9WTR4); test: Inhibition of norepinephrine uptake in synaptosomal preparation fro rat hypothalamus, using [3H]norepinephrine; format: functional, tissue-based
[2] = biological target: Sodium-dependent dopamine transporter (Rattus norvegicus, UniProt P23977); test: Inhibition of dopamine uptake in synaptosomal preparation in rat corpus striatum, using [3H]dopamine; format: functional, tissue-based
Sequence of Sodium-dependent dopamine transporter (P23977 whole entry): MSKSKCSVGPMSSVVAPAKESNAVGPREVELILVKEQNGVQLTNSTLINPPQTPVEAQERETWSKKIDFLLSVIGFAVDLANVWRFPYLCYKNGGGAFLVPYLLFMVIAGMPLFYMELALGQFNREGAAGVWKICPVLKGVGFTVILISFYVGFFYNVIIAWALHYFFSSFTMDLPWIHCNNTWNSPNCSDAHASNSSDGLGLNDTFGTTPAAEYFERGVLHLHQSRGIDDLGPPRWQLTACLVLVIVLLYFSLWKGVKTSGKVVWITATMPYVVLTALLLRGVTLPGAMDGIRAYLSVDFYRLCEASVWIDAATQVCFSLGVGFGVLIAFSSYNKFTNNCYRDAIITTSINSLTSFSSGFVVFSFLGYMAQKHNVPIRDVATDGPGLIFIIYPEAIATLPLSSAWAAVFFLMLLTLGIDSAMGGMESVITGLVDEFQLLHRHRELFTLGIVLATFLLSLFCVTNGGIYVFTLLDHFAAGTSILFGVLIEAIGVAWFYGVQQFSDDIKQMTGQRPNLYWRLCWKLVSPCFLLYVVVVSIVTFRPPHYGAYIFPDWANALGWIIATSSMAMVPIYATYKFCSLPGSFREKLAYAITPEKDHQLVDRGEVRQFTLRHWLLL

Sequence of Norepinephrine transporter (Q9WTR4 whole entry): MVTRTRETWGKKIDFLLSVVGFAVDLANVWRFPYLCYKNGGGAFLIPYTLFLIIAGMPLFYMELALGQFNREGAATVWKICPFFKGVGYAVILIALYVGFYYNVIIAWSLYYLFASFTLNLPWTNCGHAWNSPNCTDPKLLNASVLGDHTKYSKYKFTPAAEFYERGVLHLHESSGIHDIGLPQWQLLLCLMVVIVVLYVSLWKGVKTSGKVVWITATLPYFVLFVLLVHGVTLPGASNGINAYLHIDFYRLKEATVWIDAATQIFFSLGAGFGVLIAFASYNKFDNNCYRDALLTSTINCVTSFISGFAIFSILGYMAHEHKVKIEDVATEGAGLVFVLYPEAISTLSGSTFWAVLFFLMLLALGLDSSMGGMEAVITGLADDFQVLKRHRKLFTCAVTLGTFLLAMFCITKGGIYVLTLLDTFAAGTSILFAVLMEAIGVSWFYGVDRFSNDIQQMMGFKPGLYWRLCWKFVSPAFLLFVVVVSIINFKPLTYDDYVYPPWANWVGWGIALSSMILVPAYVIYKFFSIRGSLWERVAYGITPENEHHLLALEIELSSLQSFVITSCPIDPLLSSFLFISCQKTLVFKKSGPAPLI

| Compound | IC50 [1] [nM] | IC50 [2] [nM] |
| --- | --- | --- |
| CN[C@@H]1CC[C@@H](c2ccc(F)cc2)c2ccccc21 | 30 | 220 |
| CN(C)[C@@H]1CC[C@@H](c2ccc(Cl)c(Cl)c2)c2ccccc21 | – | 170 |
| CN[C@H]1CC[C@@H](c2ccc(F)cc2)c2ccccc21 | 2300 | 4700 |
| CN[C@H]1CC[C@@H](c2ccc(Oc3ccccc3)cc2)c2ccccc21 | 3900 | 6800 |
| CN[C@H]1CC[C@@H](c2ccc(OC)cc2)c2ccccc21 | 3000 | 4200 |
| CN[C@@H]1CC[C@@H](c2ccc(C(F)(F)F)cc2)c2ccccc21 | 690 | 4400 |
| CN[C@@H]1CC[C@@H](c2ccc(OC)cc2)c2ccccc21 | 150 | 400 |
| CN[C@H]1CC[C@@H](c2cccc(OC)c2)c2ccccc21 | 1400 | 5000 |
| CN[C@H]1CC[C@@H](c2ccccc2OC)c2ccccc21 | 2300 | 11200 |
| CN[C@@H]1CC[C@@H](c2cccc(OC)c2)c2ccccc21 | 60 | 530 |
| CN[C@@H]1CC[C@@H](c2ccc(Br)cc2)c2ccccc21 | 30 | 80 |
| CCCCOc1ccc([C@@H]2CC[C@@H](NC)c3ccccc32)cc1 | 1150 | – |
| CN[C@@H]1CC[C@@H](c2ccccc2OC)c2ccccc21 | 480 | 5700 |
| CN[C@@H]1CC[C@@H](c2ccc(Cl)cc2Cl)c2ccccc21 | – | 6100 |
| CN(C)[C@@H]1CC[C@@H](c2ccccc2)c2ccccc21 | 140 | 840 |
| CN(C)[C@@H]1CC[C@@H](c2ccc(Cl)cc2)c2ccccc21 | 130 | 380 |
| CN[C@@H]1CC[C@@H](c2ccc(Cl)c(C(F)(F)F)c2)c2ccccc21 | – | 7300 |
| N[C@H]1CC[C@@H](c2ccc(C(F)(F)F)cc2)c2ccccc21 | 7500 | 10000 |
| N[C@H]1CC[C@@H](c2cccc(C(F)(F)F)c2)c2ccccc21 | 3500 | 4700 |
| N[C@H]1CC[C@@H](c2ccc(Cl)c(Cl)c2)c2ccccc21 | 250 | 1250 |
| CN[C@H]1CC[C@@H](c2ccc(Br)cc2)c2ccccc21 | 1400 | 1600 |
| CN[C@H]1CC[C@@H](c2ccc(F)c(OC)c2)c2ccccc21 | 3300 | 850 |
| CCCCOc1ccc([C@@H]2CC[C@H](NC)c3ccccc32)cc1 | 940 | – |
| CN[C@@H]1CC[C@@H](c2ccc(Oc3ccccc3)cc2)c2ccccc21 | 2300 | 8400 |
| CN(C)[C@H]1CC[C@@H](c2ccc(Cl)cc2)c2ccccc21 | 1160 | 5600 |
| CN(C)[C@H]1CC[C@@H](c2ccccc2)c2ccccc21 | 310 | 10000 |

| Compound | IC50 [1] [nM] | IC50 [2] [nM] |
| --- | --- | --- |
| CN[C@H]1CC[C@@H](c2ccc(Cl)cc2Cl)c2ccccc21 | – | 1700 |
| CN[C@H]1CC[C@@H](c2ccc(Cl)c(C(F)(F)F)c2)c2ccccc21 | – | 1500 |
| CN[C@H]1CC[C@@H](c2ccccc2)c2ccccc21 | 1860 | 5100 |
| CN[C@H]1CC[C@@H](c2cccc(C(F)(F)F)c2)c2ccccc21 | 2550 | 2540 |
| CN[C@H]1CC[C@@H](c2ccc(C(F)(F)F)cc2)c2ccccc21 | 9800 | 7800 |
| CN[C@@H]1CC[C@@H](c2ccc(F)c(OC)c2)c2ccccc21 | 340 | 1200 |
| CN(C)[C@@H]1CC[C@@H](c2cccc(C(F)(F)F)c2)c2ccccc21 | 1400 | 6100 |
| CN(C)[C@@H]1CC[C@@H](c2ccc(C(F)(F)F)cc2)c2ccccc21 | 4700 | 9800 |
| CN(C)[C@H]1CC[C@@H](c2ccc(Cl)c(Cl)c2)c2ccccc21 | – | 2000 |
| CN(C)[C@H]1CC[C@@H](c2cccc(C(F)(F)F)c2)c2ccccc21 | 890 | 7000 |
| CN[C@@H]1CC[C@@H](c2cccc(C(F)(F)F)c2)c2ccccc21 | 260 | 2600 |
| CN(C)[C@H]1CC[C@@H](c2ccc(C(F)(F)F)cc2)c2ccccc21 | 14200 | 12200 |
| CN[C@@H]1CC[C@@H](c2ccccc2)c2ccccc21 (stereo in doubt; 44) [TAMETRALINE] | 18 | 150 |
| CN[C@@H]1CC[C@@H](c2ccccc2)c2ccccc21 (stereo in doubt; 45) [TAMETRALINE] | 370 | 1400 |
| CN[C@H]1CC[C@@H](c2ccccc2)c2ccccc21 (stereo in doubt; 50) | 1800 | 5500 |
| CN[C@H]1CC[C@@H](c2ccccc2)c2ccccc21 (stereo in doubt; 51) | 4200 | 10200 |
| CN[C@H]1CC[C@@H](c2ccc(C(F)(F)F)cc2)c2ccccc21 (stereo in doubt; 54) | 9400 | 6400 |
| CN[C@H]1CC[C@@H](c2ccc(C(F)(F)F)cc2)c2ccccc21 (stereo in doubt; 55) | 12000 | 5600 |
| CN[C@H]1CC[C@@H](c2cccc(C(F)(F)F)c2)c2ccccc21 (stereo in doubt; 56) | 2700 | 9700 |
| CN[C@H]1CC[C@@H](c2cccc(C(F)(F)F)c2)c2ccccc21 (stereo in doubt; 57) | 7800 | 2500 |
| CN[C@H]1CC[C@@H](c2ccc(Cl)c(C(F)(F)F)c2)c2ccccc21 (stereo in doubt; 60) | – | 6200 |
| CN[C@H]1CC[C@@H](c2ccc(Cl)c(C(F)(F)F)c2)c2ccccc21 (stereo in doubt; 61) | – | 490 |
| COCCCC/C(=N\OCCN)c1ccc(C(F)(F)F)cc1 [FLUVOXAMINE] | 1900 | 45000 |
| CN1Cc2c(N)cccc2C(c2ccccc2)C1 (configuration not stated) [NOMIFENSINE] | 20 | – |
| CN[C@@H]1CC[C@@H](c2ccccc2)c2ccccc21 [TAMETRALINE HYDROCHLORIDE] | 40 | 210 |
| CN(C)C/C=C(/c1ccc(Br)cc1)c1cccnc1 [ZIMELDINE] | – | 43000 |
